{"source": "patent US12256737B2", "about": "“Preparation method and application of water-soluble chlorhexidine hyaluronate antibacterial agents” (Jiangnan University, priority 2022, dated 2025)", "key": {"[1]": {"assay": "Water solubility test", "assay_type": "physicochemical", "conditions": "deionized water, 25° C., 500 mg sample in 1 ml", "protocol": "A method for testing the water solubility of the chlorhexidine antimicrobial disinfectant included the following steps: • 1 ml of deionized water was added to 500 mg of a sample to be tested and the sample was fully dissolved at 25° C. If an insoluble component existed, an insoluble portion suspended in the solution. After the solution was centrifuged in a centrifuge (rate of 5,000 r/min) for 5 min, the residual solid was washed 3 times in acetone and then dried in a vacuum oven for 24 h, and after the solid was completely dried, the solid was weighed and recorded as W1.\nThe solubility was calculated as follows: • solubility (mg/ml)=(500−W1)/1 • where W1 is the mass (mg) of the undissolved solid."}, "[2]": {"test_system": "S. aureus", "assay": "In-vitro antimicrobial experiment (MIC, 96-well broth dilution)", "assay_type": "cell-based, Staphylococcus aureus", "conditions": "37° C., 24 h; for MIC: LB liquid medium", "protocol": "(§1) An in-vitro antimicrobial experiment of the chlorhexidine antimicrobial disinfectant was performed according to the following steps: • in a sterile super clean bench, the chlorhexidine antimicrobial disinfectants were separately prepared into 10 mg/ml solutions. A 96-well plate was taken and 100 μL of an LB liquid medium was injected into each well plate. Two rows in the same 96-well plate were respectively used as a sterile control and a drug-free control, 100 μL of the prepared chlorhexidine antimicrobial disinfectant solution was injected into the first column of the rest rows, two rows of each chlorhexidine antimicrobial disinfectant solution were injected as two groups of a parallel test, 100 μL of the uniformly mixed solution was injected into the right side well, the step was repeated until 12 columns of the wells were filled, and 100 μL of the solution was extracted from the last column and discarded. The previously cultured E. coli and S. aureus were diluted to a desired concentration of 1×10^6 CFU/mL using the LB liquid medium. 100 μL of the above-mentioned bacterial solution was injected into each well of the rows injected with the chlorhexidine antimicrobial disinfectant and the drug-free control row in the same plate. Then the plate was placed into a biochemical incubator to be cultured at 37° C. for 24 h. The plate was taken out and the change of the turbidity degree of each well was observed. […] It was observed by naked eyes that the lowest concentration of the antimicrobial agent in the clear wells where no bacteria grew was the minimum inhibitory concentration (MIC) of the tested bacteria."}, "[3]": {"test_system": "E. coli", "assay": "In-vitro antimicrobial experiment (MIC, 96-well broth dilution)", "assay_type": "cell-based, Escherichia coli", "conditions": "37° C., 24 h; for MIC: LB liquid medium", "protocol": "as §1"}, "[4]": {"assay": "Photostability test", "assay_type": "physicochemical", "conditions": "fluorescent lamp", "protocol": "A photostability test of the hyaluronic acid chlorhexidine, for example the hyaluronic acid chlorhexidine (HA8-CHD) prepared in example 2, was performed according to the following steps: • a sample to be detected was exposed in an illumination box provided with a fluorescent lamp for 5 days and taken on 1st day, 3rd day and 5th day. Items (appearance, mass, 1H NMR spectrum detection, and antimicrobial performance) were mainly detected according to stability, especially the appearance change of the sample was particularly required to be noticed."}, "[5]": {"test_system": "L-929 mouse fibroblasts", "assay_type": "cell-based", "protocol": "A cytotoxicity test of the hyaluronic acid chlorhexidine, for example the hyaluronic acid chlorhexidine (HAL-CHD) of example 4, specifically included the following steps: • L-929 mouse fibroblasts were digested and the cell suspension concentration was adjusted to 0.5-1 million/mL. 100 μL of the cell suspension was added into each well of a 96-well plate with […]. The wells at the edge of the 96-well plate were filled with a culture solution. The cells were cultured overnight in a 5% CO2 incubator at 37° C. Three samples of HAL-CHD-1 (1 MIC), HAL-CHD-3 (3 MIC) and HAL-CHD-5 (5 MIC) at the concentration gradients of 10 μL or less were respectively added, and 5 replicates were prepared for each concentration gradient. At the same time, a zero-setting well (containing a culture medium and CCK-8) was set. The 96-well plate was incubated in a 5% CO2 incubator at 37° C. After 24 h, 48 h and 72 h, 10 μL of a CCK-8 reagent was added. The reaction was performed in the incubator for 3 h and the absorbance was measured using a microplate reader at the wavelength of 450 nm."}}, "data": [{"molecule": "CC(=O)O.CC(=O)O.NC(=N\\CCCCCC/N=C(N)/N=C(\\N)Nc1ccc(Cl)cc1)/N=C(\\N)Nc1ccc(Cl)cc1", "note": "[AA-CHD, chlorhexidine acetate]", "values": [{"measurement": "Water solubility", "setting": "[1]", "result": 19.05, "unit": "mg/mL"}]}, {"molecule": "[H]/N=C(\\N/C(=N/[H])NCCCCCCNC(=N)NC(=N)Nc1ccc(Cl)cc1)Nc1ccc(Cl)cc1", "note": "[CHD, 1,6-bis(p-chlorophenyldiguanido)hexane]", "values": [{"measurement": "solubility", "setting": "[1]; thermodynamic from solid", "result": 0.85, "unit": "mg/mL"}]}, {"molecule": "N=C(NCCCCCCNC(=N)NC(=N)Nc1ccc(Cl)cc1)NC(=N)Nc1ccc(Cl)cc1.O=C(O)[C@H](O)[C@@H](O)[C@H](O)[C@H](O)CO.O=C(O)[C@H](O)[C@@H](O)[C@H](O)[C@H](O)CO", "note": "[GA-CHD, chlorhexidine gluconate, reference compound]", "values": [{"measurement": "Water solubility", "setting": "[1]", "result": "≥500", "unit": "mg/mL"}, {"measurement": "MIC", "setting": "[2]", "result": 700, "unit": "µM"}, {"measurement": "MIC", "setting": "[3]", "result": 900, "unit": "µM"}]}, {"molecule": "hyaluronic acid chlorhexidine [HA4-CHD]", "values": [{"measurement": "MIC, corresponding mass concentration", "setting": "[2]", "result": "1,250 μg/mL"}, {"measurement": "MIC", "setting": "[2]", "result": 800, "unit": "µM"}, {"measurement": "MIC, corresponding mass concentration", "setting": "[3]", "result": "1,667 μg/mL"}, {"measurement": "MIC", "setting": "[3]", "result": 1100, "unit": "µM"}]}, {"molecule": "hyaluronic acid chlorhexidine [HA8-CHD]", "values": [{"measurement": "Water solubility", "setting": "[1]", "result": "≥500", "unit": "mg/mL"}, {"measurement": "antimicrobial performance after illumination", "setting": "[4]; after illumination", "result": "not obviously reduced"}, {"measurement": "appearance versus freshly prepared sample", "setting": "[4]; within 5 days of illumination", "result": "no significant difference in appearance"}, {"measurement": "mass versus freshly prepared sample", "setting": "[4]; within 5 days of illumination", "result": "no significant change in the mass"}, {"measurement": "structure characterization (1H NMR) versus freshly prepared sample", "setting": "[4]; within 5 days of illumination", "result": "no significant difference in the structure characterization"}]}, {"molecule": "hyaluronic acid chlorhexidine [HAL-CHD]", "values": [{"measurement": "cell viability versus control group", "setting": "[5]", "result": "higher that of the control group"}]}]}
